Converted amounts (≈) assume the structure as drawn. Read-outs that look alike come from different tables or passages of the source.
Columns and labels:
[1] = target: T1, FabI from S. aureus (Staphylococcus aureus, UniProt Q6GI75); assay: In vitro inhibition of recombinant S. aureus FabI enzyme (fluorescence based assay); format: biochemical
T1 construct: made in house
T1 sequence (Q6GI75 1-256): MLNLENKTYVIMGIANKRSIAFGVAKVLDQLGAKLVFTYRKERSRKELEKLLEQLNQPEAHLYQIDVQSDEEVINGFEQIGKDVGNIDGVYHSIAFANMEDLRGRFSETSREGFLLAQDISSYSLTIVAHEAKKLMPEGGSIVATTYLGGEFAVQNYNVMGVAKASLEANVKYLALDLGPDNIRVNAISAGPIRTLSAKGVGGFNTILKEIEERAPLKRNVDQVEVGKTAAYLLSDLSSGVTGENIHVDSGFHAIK
Experimental: (§1) Compound inhibitory activity of FabI enzyme is measured in vitro by the IC50 determination using a fluorescence based assay.
The protein FabI from S. aureus is prepared and purified using standard methods for recombinant protein expression after cloning of the gene in a prokaryotic expression vector.
(§2) The biochemical activity of the FabI enzyme is assessed using the following method.
The assay buffer “AB” contained 50 mM ADA (N-(2-acetamido)iminodiacetic acid monosodium salt) pH 6.5, 1 m M dithiothreitol, 0.006% Triton-X100 and 50 mM NaCl. The following components are added in a white polystyrene Costar plate (Ref 3912) up to a final volume of 55.5 μL: 1.5 μL DMSO or inhibitor dissolved in DMSO and 54 μL of a FabI/NADPH/NADP+ mixture in AB. […] Fluorescence intensity of NADPH (λex=360 nm, λem=520 nm) is measured immediately after t-O-NAC addition (T0), and approximately 50 min later (T50) by a Fluostar Optima (BMG) so as to achieve ±30% of NADPH conversion. Enzyme activity is calculated by first subtracting T0 signal to T50 and then subtracting background signal (FabI=0). Percentages of inhibition are calculated against untreated samples (Inhibitor=0) and IC50 are fitted to a classical Langmuir equilibrium model using XLFIT (IDBS).

[2] = target: E. coli FabI enzyme (Escherichia coli, UniProt P0AEK4); assay: In vitro inhibition of recombinant E. coli FabI enzyme; format: biochemical
Experimental: as §1, §2
The assay buffer “AB” contained 50 mM ADA (N-(2-acetamido)iminodiacetic acid monosodium salt) pH 6.5, 1 m M dithiothreitol, 0.006% Triton-X100 and 50 mM NaCl. The following components are added in a white polystyrene Costar plate (Ref 3912) up to a final volume of 55.5 μL: 1.5 μL DMSO or inhibitor dissolved in DMSO and 54 μL of a FabI/NADPH/NADP+ mixture in AB. After 60 min of pre-incubation at room temperature, the reaction is started by addition of 5 μL of trans-2-octenoyl N-acetylcysteamine thioester (t-o-NAC) to a final volume of 60.5 μL. […] Fluorescence intensity of NADPH (λex=360 nm, λem=520 nm) is measured immediately after t-O-NAC addition (T0), and approximately 50 min later (T50) by a Fluostar Optima (BMG) so as to achieve ±30% of NADPH conversion. Enzyme activity is calculated by first subtracting T0 signal to T50 and then subtracting background signal (FabI=0). Percentages of inhibition are calculated against untreated samples (Inhibitor=0) and IC50 are fitted to a classical Langmuir equilibrium model using XLFIT (IDBS).

[3] = test system: S. aureus CIP 54.146; assay: MIC determination using broth microdilution method; format: cell-based; conditions: Staphylococcus aureus, CIP54 / MSSA; MSSA CIP 54.146; range over a number of batches; read-out: MIC (μg/ml) (Broth microdilution) S. aureus CIP 54.146
Experimental: The compound of the invention is a useful antibacterial agent having a selective spectrum of activity in vitro against bacterial strains relying on FabI and related targets. […] The activity is presented as Minimum Inhibitory Concentration (MIC) expressed in μg/ml and was determined using broth microdilution or Agar dilution methods.
Antibacterial activity was determined on MSSA CIP 54.146 provided by the Centre de Ressources Biologiques de l'Institut Pasteur
This protocol is compliant with Clinical Laboratory Standards Institute (CLSI) methodology as described in M7-A7 document of the CLSI. The compound to be tested is diluted according to a geometric series of reason 2 in pure DMSO. Dilutions are transferred in sterile polystyrene microplates, followed by mid-log phase bacteria in cation-adjusted Muller-Hinton broth (ca-MHB, Fluka, Reference 90922) with a final inoculum of 5×10^5 cfu/ml. Microplates are incubated overnight at 35° C. MIC is defined as the lowest concentration of antimicrobial agent that completely prevents visible bacterial growth. All manipulations, but compound handling (in pure DMSO), are performed under sterile conditions. The final concentration of DMSO in the plates is 2%.

[4] = Aqueous solubility at pH 7.4 buffer; format: physicochemical; conditions: for solubility at 24 h: aqueous buffer, thermodynamic from solid, 20° C.
Experimental: (§3) For each medium, the saturation of the medium is obtained by adding an excess of investigated compound to a given volume of test medium. The suspension is stirred at 20° C. for 24 h, the supernatant is then isolated and diluted to allow its injection into a chromatographic system. The concentration of the compound in solution for each medium is determined by external standardization.

[5] = Formulated solubility in 20% hydroxypropyl beta cyclodextrin aqueous solution with 5% dextrose; format: physicochemical; conditions: for solubility at 24 h: aqueous with cosolvent or surfactant or cyclodextrin, thermodynamic from solid, 20% hydroxypropyl beta cyclodextrin aqueous solution with 5% dextrose, 20° C.
Experimental: as §3
Solubility was also investigated in a 20% hydroxypropyl beta cyclodextrin aqueous solution with 5% dextrose and the results are shown in Table 4.

[6] = target: human norepinephrine transporter (Homo sapiens, UniProt P23975); assay: In vitro binding/enzyme panel: human norepinephrine transporter
[7] = Panel of 112 in vitro binding assays and 42 in vitro enzyme assays; conditions: except human norepinephrine transporter
[8] = target: hERG (Homo sapiens, UniProt Q12809); assay: hERG tail current amplitude in vitro; format: cell-based; conditions: after rundown subtraction
[9] = QT interval in conscious dogs after single intravenous infusion; format: in vivo
[10] = Functional observation battery and evaluation of respiration function in rats; format: in vivo; conditions: compared to vehicle only
[11] = In vivo studies in rats and dogs (adverse effects)
[12] = test system: Streptococcus and Enterococcus; assay: Activity against other Gram-positive pathogens not dependent upon FabI; format: cell-based
[13] = test system: target bacterial populations; assay: Resistance and killing profile in target bacterial populations; format: cell-based
[14] = test system: MSSA, MRSA, VISA and VRSA strains; assay: In vitro activity against pathogenic S. aureus strains; format: cell-based, Staphylococcus aureus; conditions: several pathogenic strains
Text: (§4) Such increased solubility provides the significant advantage of allowing the compound of the invention to be administered intravenously.

[15] = test system: MSSA, MRSA and VISA infections; assay: Murine infection model; format: in vivo
Text: as §4

[16] = rats, intravenous; cited from earlier work

Sequence of E. coli FabI enzyme (P0AEK4 whole entry): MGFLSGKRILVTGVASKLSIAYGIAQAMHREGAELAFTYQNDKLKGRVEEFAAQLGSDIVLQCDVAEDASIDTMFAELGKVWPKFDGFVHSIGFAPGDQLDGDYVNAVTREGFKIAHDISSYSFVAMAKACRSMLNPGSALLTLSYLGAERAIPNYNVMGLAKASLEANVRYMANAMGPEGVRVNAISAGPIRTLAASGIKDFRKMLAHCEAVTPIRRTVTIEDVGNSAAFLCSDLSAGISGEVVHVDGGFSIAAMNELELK
Sequence of human norepinephrine transporter (P23975 whole entry): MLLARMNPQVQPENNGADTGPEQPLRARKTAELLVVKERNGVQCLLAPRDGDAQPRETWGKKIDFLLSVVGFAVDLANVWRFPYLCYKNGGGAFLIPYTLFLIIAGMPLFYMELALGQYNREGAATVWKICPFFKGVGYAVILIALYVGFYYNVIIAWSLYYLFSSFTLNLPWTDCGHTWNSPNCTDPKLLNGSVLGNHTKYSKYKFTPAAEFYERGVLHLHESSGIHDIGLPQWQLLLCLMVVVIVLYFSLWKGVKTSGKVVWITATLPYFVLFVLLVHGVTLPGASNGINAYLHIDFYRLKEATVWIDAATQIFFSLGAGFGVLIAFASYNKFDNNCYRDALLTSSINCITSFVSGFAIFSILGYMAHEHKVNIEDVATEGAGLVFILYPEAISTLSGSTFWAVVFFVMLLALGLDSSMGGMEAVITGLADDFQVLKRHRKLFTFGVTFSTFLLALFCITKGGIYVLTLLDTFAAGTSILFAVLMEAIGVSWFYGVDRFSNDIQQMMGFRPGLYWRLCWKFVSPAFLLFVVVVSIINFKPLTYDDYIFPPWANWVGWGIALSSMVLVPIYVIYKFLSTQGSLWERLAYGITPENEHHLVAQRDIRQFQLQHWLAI
Sequence of hERG (Q12809 whole entry, the tested form may be a part): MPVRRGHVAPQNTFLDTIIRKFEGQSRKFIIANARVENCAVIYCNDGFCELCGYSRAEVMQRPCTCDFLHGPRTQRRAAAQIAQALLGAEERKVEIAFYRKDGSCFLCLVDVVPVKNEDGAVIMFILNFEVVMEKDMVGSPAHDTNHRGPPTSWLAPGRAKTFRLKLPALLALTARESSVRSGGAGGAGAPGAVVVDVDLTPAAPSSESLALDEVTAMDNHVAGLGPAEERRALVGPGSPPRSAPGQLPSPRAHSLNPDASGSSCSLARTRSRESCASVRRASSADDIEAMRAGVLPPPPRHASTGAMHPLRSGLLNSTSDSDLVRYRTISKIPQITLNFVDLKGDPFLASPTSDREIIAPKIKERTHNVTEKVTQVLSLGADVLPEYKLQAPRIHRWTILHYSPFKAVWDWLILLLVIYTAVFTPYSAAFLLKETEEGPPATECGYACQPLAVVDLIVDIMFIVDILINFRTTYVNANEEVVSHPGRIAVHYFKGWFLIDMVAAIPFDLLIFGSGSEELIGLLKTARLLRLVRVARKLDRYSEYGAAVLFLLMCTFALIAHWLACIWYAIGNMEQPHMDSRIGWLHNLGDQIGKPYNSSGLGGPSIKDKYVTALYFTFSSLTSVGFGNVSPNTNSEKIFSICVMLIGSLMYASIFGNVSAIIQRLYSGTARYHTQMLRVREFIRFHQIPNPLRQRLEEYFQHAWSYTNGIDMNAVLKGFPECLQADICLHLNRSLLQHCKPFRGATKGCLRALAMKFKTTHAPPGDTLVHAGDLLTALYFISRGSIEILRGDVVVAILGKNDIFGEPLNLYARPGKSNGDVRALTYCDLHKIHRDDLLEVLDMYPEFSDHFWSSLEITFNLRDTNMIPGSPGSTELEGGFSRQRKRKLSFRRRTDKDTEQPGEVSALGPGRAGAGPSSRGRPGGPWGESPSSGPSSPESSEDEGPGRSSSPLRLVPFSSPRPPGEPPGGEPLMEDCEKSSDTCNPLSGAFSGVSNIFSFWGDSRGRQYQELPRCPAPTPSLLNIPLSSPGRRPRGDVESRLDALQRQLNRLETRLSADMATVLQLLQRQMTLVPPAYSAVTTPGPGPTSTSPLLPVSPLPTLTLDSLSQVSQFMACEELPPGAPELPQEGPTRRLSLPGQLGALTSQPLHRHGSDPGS

Q: What does the source list for `CCc1cc(O)c(Oc2cccnc2F)cc1F` [Comparative Example 2, 5-Ethyl-4-fluoro-2-(2-fluoropyridin-3yloxy)phenol, reference compound]?
A: IC50 ([1]; recombinant S. aureus FabI, range over a number of batches, read-out: FabI Inhibition IC50 (μM) S. aureus): 0.008 to 0.017 µM; IC50 ([2]; recombinant E. coli FabI, range over a number of batches, read-out: FabI Inhibition IC50 (μM) E. coli): 0.019 to 0.065 µM; MIC [3]: 0.063 µg/mL (≈ 0.251 µM); solubility at 24 h [4]: 8 µg/mL (≈ 31.8 µM); solubility at 24 h [5]: 2400 µg/mL (≈ 9550 µM)

Q: Which results are given for `CCc1cc(O)c(Oc2ccc(C(N)=O)cc2F)cc1F` [Example 1, 4-(4-Ethyl-5-fluoro-2-hydroxyphenoxy)-3-fluorobenzamide]?
A: IC50 [1]: 0.012 to 0.014 µM; IC50 [2]: 0.058 to 0.068 µM; MIC [3]: 0.063 to 0.125 µg/mL (≈ 0.215 to 0.426 µM); Fold more soluble than comparative example 2 [4]: two fold; solubility at 24 h [4]: 16 µg/mL (≈ 54.6 µM); Fold more soluble than comparative example 2 ([5]; 20% hydroxypropyl beta cyclodextrin with 5% dextrose): ~5 fold; solubility at 24 h [5]: 11300 µg/mL (≈ 38500 µM); Inhibition of human norepinephrine transporter [6]: 88%; Affinity or activity in 112 in vitro binding assays and 42 in vitro enzyme assays [7]: devoid of any significant affinity or activity; inhibition at 30 µM [8]: 35.3%; Corrected QT after the end of infusion versus control group ([9]; after the end of infusion): generally lower than in the control group; QT interval prolongation ([9]; single intravenous infusion at 25, 50 and 100 mg/kg): no QT interval prolongation was observed; Tolerability in functional observation battery and respiration function assays [10]: well tolerated; Adverse effects during in vivo studies [11]: no major adverse effects were reported; Activity against Streptococcus and Enterococcus [12]: no activity; Type of antibacterial effect ([13]; target bacterial populations): bacteriostatic or slow bactericidal effect; Spontaneous mutation rate towards drug resistance ([13]; target bacterial populations exposed to the compound): approximately 10^−9; Cross resistance with glycopeptides (Vancomycin) and oxazolidinones (Linezolid) ([13]; target microbial populations): no cross resistance; In vitro activity against MSSA, MRSA, VISA and VRSA strains [14]: highly active; In vivo activity in a murine model [15]: active in vivo

Q: For `Oc1cc(Cl)ccc1Oc1ccc(Cl)cc1Cl` [Triclosan], which LD50 [16] is on record?
A: 29 mg/kg
